Consider 17 compounds from US12559492B2, “BRAF degraders” (C4 Therapeutics, Inc., priority 2020, dated 2026).

For the assay, the target named is BRAF^V600E protein (Homo sapiens, UniProt P15056, V600E). Description: HiBiT cellular BRAF V600E degradation assay. The assay is classed as cell-based. The conditions noted are these: for DC50: A375.10 cells (HiBiT tag knocked in at N-terminal of BRAF V600E), concentration at which 50% of total cellular BRAF V600E is degraded; for Emax: read-out: HiBit 24 h Emax. In general terms: HiBiT is a short tag that completes a luciferase, so light tracks the accessible tagged protein.
Sequence of BRAF^V600E protein (P15056 whole entry V600E): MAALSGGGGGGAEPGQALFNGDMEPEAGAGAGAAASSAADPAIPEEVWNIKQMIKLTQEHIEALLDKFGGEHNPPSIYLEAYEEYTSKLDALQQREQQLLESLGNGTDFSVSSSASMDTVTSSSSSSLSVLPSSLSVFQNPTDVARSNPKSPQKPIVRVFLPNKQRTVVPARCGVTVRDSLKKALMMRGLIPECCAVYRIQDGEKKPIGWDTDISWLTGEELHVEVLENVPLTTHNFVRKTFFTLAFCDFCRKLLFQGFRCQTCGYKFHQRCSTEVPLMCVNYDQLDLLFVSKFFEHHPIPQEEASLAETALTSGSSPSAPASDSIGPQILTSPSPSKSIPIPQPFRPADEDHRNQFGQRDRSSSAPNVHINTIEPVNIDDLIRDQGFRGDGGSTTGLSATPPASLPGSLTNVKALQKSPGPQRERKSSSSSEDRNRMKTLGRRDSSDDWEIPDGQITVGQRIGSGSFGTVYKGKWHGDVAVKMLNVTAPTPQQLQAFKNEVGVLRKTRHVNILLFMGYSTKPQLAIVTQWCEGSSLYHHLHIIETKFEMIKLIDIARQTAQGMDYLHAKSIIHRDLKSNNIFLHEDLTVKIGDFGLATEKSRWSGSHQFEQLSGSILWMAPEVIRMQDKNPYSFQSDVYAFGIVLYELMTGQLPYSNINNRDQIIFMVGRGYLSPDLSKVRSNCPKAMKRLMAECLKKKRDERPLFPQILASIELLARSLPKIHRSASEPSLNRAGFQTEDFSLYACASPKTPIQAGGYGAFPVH

Where [1] appears, read: A375.10 cells, 24 h incubation, Emax = amount of residual protein remaining in the cell after compound treatment.

Read-outs that look alike come from different tables or passages of the source.

Turning to `CCN(C)S(=O)(=O)Nc1ccc(F)c(C(=O)c2c[nH]c3ncc(-c4ccc(N5CCN(C(=O)CN6CCC(c7ccc(OC8CCC(=O)NC8=O)cn7)CC6)CC5)nc4)cc23)c1F` (stereo not shown) [Example A45, 5-[6-[4-[2-[4-[5-(2,6-Dioxopiperidin-3-yl)oxypyridin-2-yl]piperidin-1-yl]acetyl]piperazin-1-yl]pyridin-3-yl]-3-[3-[[ethyl(methyl)sulfamoyl]amino]-2,6-difluorobenzoyl]-1H-pyrrolo[2,3-b]pyridine], the DC50 (as a rule, the midpoint of the concentration-degradation curve) (24 h incubation) is 65 nM. Also, the Emax (usually the maximal effect, on the per cent scale that the assay sets) under setting [1] amounted to 21%.

As to `CC(C)S(=O)(=O)Nc1ccc(F)c(C(=O)c2c[nH]c3ncc(-c4ccc(N5CCN(C(=O)CN6CCC(c7ccc(OC8CCC(=O)NC8=O)cc7)CC6)CC5)nc4)cc23)c1F` (stereo not shown) [Example 13, N-[3-[5-[6-[4-[2-[4-[4-[(2,6-dioxo-3-piperidyl)oxy]phenyl]-1-piperidyl]acetyl]piperazin-1-yl]-3-pyridyl]-1H-pyrrolo[2,3-b]pyridine-3-carbonyl]-2,4-difluoro-phenyl]propane-2-sulfonamide], half-maximal degradation (24 h incubation) (DC50) was put at 20.9 nM. Besides, the maximum response (Emax) under setting [1] came to 9.56%.

As for `CCN(C)S(=O)(=O)Nc1ccc(F)c(C(=O)c2c[nH]c3ncc(-c4cnc(N5CCN(C(=O)CC6(O)CCN(c7ncc(NC8CCC(=O)NC8=O)cc7F)CC6)CC5)nc4)cc23)c1F` (stereo not shown) [Example 58, 5-[2-[4-[2-[1-[5-[(2,6-dioxo-3-piperidyl)amino]-3-fluoro-2-pyridyl]-4-hydroxy-4-piperidyl]acetyl]piperazin-1-yl]pyrimidin-5-yl]-3-[3-[[ethyl(methyl)sulfamoyl]amino]-2,6-difluoro-benzoyl]-1H-pyrrolo[2,3-b]pyridine], it took 4.25 nM to reach half-maximal degradation (24 h incubation) (DC50). Also, the Emax under setting [1] was found to be 9.42%.

For `CCN(C)S(=O)(=O)Nc1ccc(F)c(C(=O)c2c[nH]c3ncc(-c4cnc(N5CCN(C(=O)CN6CCC(c7ccc(NC8CCC(=O)NC8=O)cc7)CC6)CC5)nc4)c(C)c23)c1F` (stereo not shown) [Example 65, 5-[2-[4-[2-[4-[4-[(2,6-dioxo-3-piperidyl)amino]phenyl]-1-piperidyl]acetyl]piperazin-1-yl]pyrimidin-5-yl]-3-[3-[[ethyl(methyl)sulfamoyl]amino]-2,6-difluoro-benzoyl]-4-methyl-1H-pyrrolo[2,3-b]pyridine], half-maximal degradation (24 h incubation) (DC50) was put at 9.97 nM. Besides, the Emax under setting [1] was determined as 3.79%.

Compound `CCN(C)S(=O)(=O)Nc1ccc(F)c(C(=O)c2c[nH]c3ncc(-c4cnc(N5CCN(C(=O)CN6CCC(c7ccc(N8CCC(=O)NC8=O)cc7F)CC6)CC5)nc4)cc23)c1F` [Example 44, 5-[2-[4-[2-[4-[4-(2,4-dioxohexahydropyrimidin-1-yl)-2-fluoro-phenyl]-1-piperidyl]acetyl]piperazin-1-yl]pyrimidin-5-yl]-3-[3-[[ethyl(methyl)sulfamoyl]amino]-2,6-difluoro-benzoyl]-1H-pyrrolo[2,3-b]pyridine] showed a DC50 (24 h incubation) of 41.3 nM. Besides, the maximal response (Emax) under setting [1] is 13.2%.

Consider `CCN(C)S(=O)(=O)Nc1ccc(F)c(C(=O)c2c[nH]c3ncc(-c4cnc(N5CCN(C(=O)CN6CCC(c7ccc8c(C9CCC(=O)NC9=O)nn(C)c8c7)CC6)CC5)nc4)cc23)c1F` (stereo not shown) [Example 27, 3-(2,6-dioxo-3-piperidyl)-6-[1-[2-[4-[5-[3-[3-[[ethyl(methyl)sulfamoyl]amino]-2,6-difluoro-benzoyl]-1H-pyrrolo[2,3-b]pyridin-5-yl]pyrimidin-2-yl]piperazin-1-yl]-2-oxo-ethyl]-4-piperidyl]-1-methyl-indazole], for which it took 2.09 nM to reach half-maximal degradation (24 h incubation) (DC50). Moreover, the Emax under setting [1] turned out to be 10.8%.

In turn, `O=C1CCC(Nc2ccc(C3CCN(CC(=O)N4CCN(c5ccc(-c6cnc7[nH]cc(C(=O)c8c(F)ccc(NS(=O)(=O)N9CC[C@@H](F)C9)c8F)c7c6)cc5)CC4)CC3)cc2)C(=O)N1` (stereo partly drawn) [Example A75, (3R)—N-[3-[5-[4-[4-[2-[4-[4-[(2,6-Dioxopiperidin-3-yl)amino]phenyl]piperidin-1-yl]acetyl]piperazin-1-yl]phenyl]-1H-pyrrolo[2,3-b]pyridine-3-carbonyl]-2,4-difluorophenyl]-3-fluoropyrrolidine-1-sulfonamide] gave a DC50 (24 h incubation) of 4.46 nM. Under setting [1], the Emax stood at 16.2%.

The compound `CCN(C)S(=O)(=O)Nc1ccc(F)c(C(=O)c2c[nH]c3ncc(-c4ccc(N5CC6(CN(C(=O)CN7CCC(c8ccc(NC9CCC(=O)NC9=O)cc8)CC7)C6)C5)nc4)cc23)c1F` (stereo not shown) [Example A76, 5-[6-[2-[2-[4-[4-[(2,6-dioxopiperidin-3-yl)amino]phenyl]piperidin-1-yl]acetyl]-2,6-diazaspiro[3.3]heptan-6-yl]pyridin-3-yl]-3-[3-[[ethyl(methyl)sulfamoyl]amino]-2,6-difluorobenzoyl]-1H-pyrrolo[2,3-b]pyridine] displayed a DC50 (24 h incubation) of 14.9 nM. Further, under setting [1], the Emax amounted to 16.9%.

In turn, `CCN(C)S(=O)(=O)Nc1ccc(F)c(C(=O)c2c[nH]c3ncc(-c4cnc(N5CCN(C(=O)CN6CCC(c7ccc(NC8CCC(=O)NC8=O)cc7)CC6)CC5)nc4)cc23)c1F` (stereo not shown) [Example 18, 5-[2-[4-[2-[4-[4-[(2,6-dioxo-3-piperidyl)amino]phenyl]-1-piperidyl]acetyl]piperazin-1-yl]pyrimidin-5-yl]-3-[3-[[ethyl(methyl)sulfamoyl]amino]-2,6-difluoro-benzoyl]-1H-pyrrolo[2,3-b]pyridine] had a half-maximal degradation concentration (DC50) (24 h incubation) of 2.85 nM. For the same compound, the “HiBit 24 h Emax” value under setting [1] turned out to be 7.93%.

As to `CCN(C)S(=O)(=O)Nc1cccc(C(=O)c2c[nH]c3ncc(-c4cnc(N5CCN(C(=O)CC6(O)CCN(c7ccc(NC8CCC(=O)NC8=O)cc7F)CC6)CC5)nc4)cc23)c1F` (stereo not shown) [Example 101, 5-[2-[4-[2-[1-[4-[(2,6-dioxo-3-piperidyl)amino]-2-fluoro-phenyl]-4-hydroxy-4-piperidyl]acetyl]piperazin-1-yl]pyrimidin-5-yl]-3-[3-[[ethyl(methyl)sulfamoyl]amino]-2-fluoro-benzoyl]-1H-pyrrolo[2,3-b]pyridine], the DC50 (24 h incubation) came to 3.38 nM. Also, under setting [1], the Emax was determined as 10.2%.

Under “24 h incubation”, `CCN(C)S(=O)(=O)Nc1ccc(F)c(C(=O)c2c[nH]c3ncc(-c4cnc(N5CCN(C(=O)CN6CCC(c7ccc8c(N9CCC(=O)NC9=O)nn(C)c8c7)C(F)(F)C6)CC5)nc4)cc23)c1F` (stereo not shown) [Example 61, 3-(2,4-dioxohexahydropyrimidin-1-yl)-6-[1-[2-[4-[5-[3-[3-[[ethyl(methyl)sulfamoyl]amino]-2,6-difluoro-benzoyl]-1H-pyrrolo[2,3-b]pyridin-5-yl]pyrimidin-2-yl]piperazin-1-yl]-2-oxo-ethyl]-3,3-difluoro-4-piperidyl]-1-methyl-indazole] registered a 50% degradation concentration (DC50) of 3.75 nM. Moreover, the Emax under setting [1] was determined as 7.83%.

Where the note is “24 h incubation”, `CCN(C)S(=O)(=O)Nc1ccc(F)c(C(=O)c2c[nH]c3ncc(-c4cnc(N5CC6(C5)CC(O)(C5CCN(c7ccc(NC8CCC(=O)NC8=O)cc7F)CC5)C6)nc4)cc23)c1F` (stereo not shown) [Example 196, 5-[2-[6-[1-[4-[(2,6-dioxo-3-piperidyl)amino]-2-fluoro-phenyl]-4-piperidyl]-6-hydroxy-2-azaspiro[3.3]heptan-2-yl]pyrimidin-5-yl]-3-[3-[[ethyl(methyl)sulfamoyl]amino]-2,6-difluoro-benzoyl]-1H-pyrrolo[2,3-b]pyridine] came in with a DC50 of 1.14 nM. Further, the Emax under setting [1] is 6.81%.

`CCN(C)S(=O)(=O)Nc1cccc(C(=O)c2c[nH]c3ncc(-c4cnc(N5CCN(C(=O)CC6(O)CCN(c7ncc(NC8CCC(=O)NC8=O)cc7F)CC6)CC5)nc4)cc23)c1F` (stereo not shown) [Example 104, 5-[2-[4-[2-[1-[5-[(2,6-dioxo-3-piperidyl)amino]-3-fluoro-2-pyridyl]-4-hydroxy-4-piperidyl]acetyl]piperazin-1-yl]pyrimidin-5-yl]-3-[3-[[ethyl(methyl)sulfamoyl]amino]-2-fluoro-benzoyl]-1H-pyrrolo[2,3-b]pyridine] gave a half-maximal degradation concentration (DC50) (24 h incubation) of 3.37 nM. The Emax under setting [1] turned out to be 10.8%.

Regarding `CCN(C)S(=O)(=O)Nc1cccc(C(=O)c2c[nH]c3ncc(-c4ccc(N5CCN(C(=O)CC6(O)CCN(c7ccc(NC8CCC(=O)NC8=O)cc7F)C6)CC5)cc4)cc23)c1F` (stereo not shown) [Example 118, 5-[4-[4-[2-[1-[4-[(2,6-dioxo-3-piperidyl)amino]-2-fluoro-phenyl]-3-hydroxy-pyrrolidin-3-yl]acetyl]piperazin-1-yl]phenyl]-3-[3-[[ethyl(methyl)sulfamoyl]amino]-2-fluoro-benzoyl]-1H-pyrrolo[2,3-b]pyridine], it took 27.2 nM to reach half-maximal degradation (24 h incubation) (DC50). Under setting [1], the Emax stood at 13.4%.

With `CCN(C)S(=O)(=O)Nc1ccc(F)c(C(=O)c2c[nH]c3ncc(-c4ccc(N5CCN(C(=O)CCCN6CCC(c7ccc(NC8CCC(=O)NC8=O)cc7)CC6)CC5)nc4)cc23)c1F` (stereo not shown) [Example A17, 5-[6-[4-[4-[4-[4-[(2,6-Dioxopiperidin-3-yl)amino]phenyl]piperidin-1-yl]butanoyl]piperazin-1-yl]pyridin-3-yl]-3-[3-[[ethyl(methyl)sulfamoyl]amino]-2,6-difluorobenzoyl]-1H-pyrrolo[2,3-b]pyridine], the half-maximal degradation concentration (DC50) (24 h incubation) came to 44 nM. The Emax under setting [1] is 14%.

For `CCN(C)S(=O)(=O)Nc1ccc(F)c(C(=O)c2c[nH]c3ncc(-c4cnc(N5CCN(C(=O)CN6CCC(c7ccc(NC8CCC(=O)NC8=O)cc7)CC6)CC5)c(C#N)c4)cc23)c1F` (stereo not shown) [Example 82, 5-[5-cyano-6-[4-[2-[4-[4-[(2,6-dioxo-3-piperidyl)amino]phenyl]-1-piperidyl]acetyl]piperazin-1-yl]-3-pyridyl]-3-[3-[[ethyl(methyl)sulfamoyl]amino]-2,6-difluoro-benzoyl]-1H-pyrrolo[2,3-b]pyridine], the maximum response (Emax) was 7.6%. The same compound yielded a DC50 (24 h incubation) of 7.57 nM.

As for `O=C1CCC(Nc2ccc(C3CCN(CC(=O)N4CCN(c5ccc(-c6cnc7[nH]cc(C(=O)c8c(F)ccc(NS(=O)(=O)C9CCCC9)c8F)c7c6)cc5)CC4)CC3)cc2)C(=O)N1` (stereo not shown) [Example A52, N-[3-[5-[4-[4-[2-[4-[4-[(2,6-Dioxopiperidin-3-yl)amino]phenyl]piperidin-1-yl]acetyl]piperazin-1-yl]phenyl]-1H-pyrrolo[2,3-b]pyridine-3-carbonyl]-2,4-difluorophenyl]cyclopentanesulfonamide], under “24 h incubation”, half-maximal degradation (DC50) was put at 10 nM. Also, the maximum response (Emax) under setting [1] is 12%.
